Key:
OATP1B1 [1] = target: T1, OATP1B1 (Homo sapiens, UniProt Q9Y6L6); set-up: gene SLCO1B1
T1 sequence (Q9Y6L6 1-691): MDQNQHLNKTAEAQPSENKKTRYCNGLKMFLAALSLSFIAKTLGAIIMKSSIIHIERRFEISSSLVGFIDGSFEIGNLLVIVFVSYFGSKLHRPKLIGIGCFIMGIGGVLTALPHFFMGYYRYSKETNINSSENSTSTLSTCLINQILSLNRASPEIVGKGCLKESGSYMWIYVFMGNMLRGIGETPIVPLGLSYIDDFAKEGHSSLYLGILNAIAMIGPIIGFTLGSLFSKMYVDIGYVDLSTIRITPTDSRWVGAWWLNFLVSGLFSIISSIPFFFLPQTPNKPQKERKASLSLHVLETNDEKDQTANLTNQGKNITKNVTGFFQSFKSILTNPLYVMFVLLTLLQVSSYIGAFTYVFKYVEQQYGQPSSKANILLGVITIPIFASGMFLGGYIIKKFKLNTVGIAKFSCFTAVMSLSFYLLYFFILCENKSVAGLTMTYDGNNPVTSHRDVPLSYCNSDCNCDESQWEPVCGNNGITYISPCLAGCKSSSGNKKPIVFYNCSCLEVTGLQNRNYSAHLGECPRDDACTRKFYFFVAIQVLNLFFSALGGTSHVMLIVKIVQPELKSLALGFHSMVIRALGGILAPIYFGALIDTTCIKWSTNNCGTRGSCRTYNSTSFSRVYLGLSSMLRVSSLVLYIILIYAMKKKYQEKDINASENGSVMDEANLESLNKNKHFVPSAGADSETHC

OATP1B1 [2] = target: T1, OATP1B1; assay: cryo-EM structure (inward-open, […] Å); also [3H]-E3S proteoliposome counterflow and DCF uptake inhibition; format: binding; set-up: gene SLCO1B1; human OATP1B1 with C-terminal tandem His and Flag tags
OATP1B1 [3] = target: T1, OATP1B1; assay: cryo-EM structure (outward-open, […] Å); also cell DCF uptake assay; format: binding; set-up: gene SLCO1B1; human OATP1B1 with C-terminal tandem His and Flag tags

Compound: C=CC1=C(C)/C(=C/c2[nH]c(Cc3[nH]c(/C=C4\NC(=O)C(C)=C4C=C)c(C)c3CCC(=O)O)c(CCC(=O)O)c2C)NC1=O [B, bilirubin]
- cryo-EM structure (outward-open, 3.73 Å); also DCF uptake inhibition in HEK293T (OATP1B1 [1]): Bilirubin and simeprevir occupy the major pocket located in the central cavity, while DCF binds to the minor pocket

Compound: C[C@]12CC[C@H]3c4ccc(OS(=O)(=O)O)cc4CC[C@@H]3[C@@H]1CCC2=O [E, estrone-3-sulfate]
- cryo-EM structure (inward-open, 3.2 Å); also [3H]-E3S proteoliposome counterflow (OATP1B1 [2]): The EM density of E3S in OATP1B1–Ein is unambiguously resolved, allowing us to discern the pose of the E3S

Compound: O=C1OC2(c3cc(Cl)c(O)cc3Oc3cc(O)c(Cl)cc32)c2ccccc21 [D, 2′,7′-dichlorofluorescein]
- cryo-EM structure (outward-open, 2.92 Å); also cell DCF uptake assay (OATP1B1 [3]): DCF extends towards a minor hydrophilic pocket within the interior of the CTD by forming hydrogen-bond interactions with N544 and S548

Compound: COc1ccc2c(O[C@@H]3C[C@H]4C(=O)N[C@]5(C(=O)NS(=O)(=O)C6CC6)C[C@H]5/C=C\CCCCN(C)C(=O)[C@@H]4C3)cc(-c3nc(C(C)C)cs3)nc2c1C [S, simeprevir]
- cryo-EM structure (outward-open, 3.73 Å); also DCF uptake inhibition in HEK293T (OATP1B1 [1]): Bilirubin and simeprevir occupy the major pocket located in the central cavity, while DCF binds to the minor pocket

From publication PMC10709409, “Cryo-EM structures of human organic anion transporting polypeptide OATP1B1” (Cell Research, 2023)
